Key:
[1] = Aqueous surface tension (Cahn microbalance, sand blasted platinum blade); type: physicochemical; conditions: 0.1 wt % in 0.005M NaCl water (deionized), 25° C.
Procedure: Surface tension was measured using a Cahn microbalance, with a sand blasted platinum blade as the sensor. Solutions of the various components were prepared at 0.1 wt % in 0.005M NaCl water (Deionized), as an equilibrium aid. Aqueous solutions of these unique compositions provide a significant reduction in surface tension relative to conventional surfactants.

[2] = Spreading of a 10 μL droplet of surfactant solution on polyester film; type: physicochemical; conditions: 10 μL droplet on polyester film (3M, IR 1140), after 30 seconds
Procedure: Spreading was determined by applying a 10 μL droplet of surfactant solution to a polyester film (3M, IR 1140 transparency film) and measuring the spread diameter after 30 seconds. The solution was applied with an automatic pipette to provide droplets of reproducible volume. Deionized water that was further purified with a Millipore filtration system was used to prepare the surfactant solutions.

Surface Tension (mN/m) [1]: 21 mN/m
Spread Diameter (mm) 0.1 wt% ([2]; 0.1 wt% solution): 44 mm
Spread Diameter (mm) 0.2 wt% ([2]; 0.2 wt% solution): 42 mm
Substance: Me3SiO[MeSi(C3H6O(C2H4O)8H)O]1SiMe3 [SIL-A]

Source: patent US6890886B2, “Agricultural compositions employing organosiloxanes containing polyhydric groups” (General Electric Company, priority 2000, dated 2005)
